Consider 41 compounds from US20140066620A1, “PYRIMIDINE SUBSTITUTED PURINE DERIVATIVES” (VERASTEM, INC., priority 2007, published 2014).

The target of one experiment is T1, Truncated mTOR kinase (Homo sapiens, UniProt P42345).
T1 construct: Truncated mTOR kinase and His-tagged 4eBP1 were produced in-house
As to the kind of experiment: mTOR Assay (radiometric phosphorylation of 4eBP1). Type of experiment: biochemical. Conditions: 4eBP1 substrate, 10 μM ATP, 1 hour at room temperature. The protocol:
Truncated mTOR kinase and His-tagged 4eBP1 were produced in-house. [γ^33P]-ATP was purchased from Amersham (GE Healthcare). All chemicals, unless otherwise stated, were from Sigma-Aldrich.
Phosphorylation assays were initially performed in a final volume of 20 μL in 384-well polypropylene plate (Greiner). […] The reaction was initiated by adding 10 μL/well of 20 μM ATP solution (final assay concentration 10 μM ATP and 0.4 μCi/well of [γhu 33P]-ATP). After 1 hour incubation at room temperature, the reaction was terminated with 40 μL/well of 20 mM EDTA/1 mM ATP solution.
50 μL/well of the stopped reaction mix was then transferred to 384-well MultiScreenHTS-PH filter plate (Millipore) pre-added with 50 μL/well of 1% phosphoric acid. The plate was washed 4 times with 120 μL/well of 0.5% phosphoric acid via vacuum filtration. Finally, 10 μL/well of Optiphase™ SuperMix liquid scintillation cocktail (Perkin Elmer) was added. After minimum 1 hour of incubation, counting was performed in a Wallac MicroBeta TriLux scintillation counter using coincidence counting mode with crosstalk correction.

Experiment [1] addresses T2, Recombinant PI3K p110α/p85 (Homo sapiens, UniProt P42336).
T2 construct: made in house
Briefly: PI3K Assay (radiometric lipid kinase assay). Type of experiment: biochemical. The following applies: p110α/p85, 2 μM ATP, 1 hour at RT; read-out: IC50 (PI3Kα). The method, then: Recombinant PI3K p110α/p85 was prepared in-house. Phosphatidylinositol (PtdIns), phosphotidylserine (PtdSer) and all other unspecified chemicals were purchased from Sigma-Aldrich. [γ^33P]ATP and Optiphase scintillant were obtained from Perkin Elmer.
Assays were performed in a final assay volume of 25 μL in 384-well Maxisorp plates (Nunc). […] Maxisorp plates were coated with 20 μL/well of a 1:1 mixture of PtdIns and PtdSer [0.1 mg/mL each dissolved in chloroform:ethanol (3:7)] and left overnight in a fume hood at room temperature (RT) to dry.
The reaction was incubated for 1 hour at RT and terminated with 30 μL/well of 50 mM EDTA solution. The plate was then washed twice with TBS, dried, and added with 30 μL/well of scintillant before it was counted in a MicroBeta Trilux.

Experiment [2] has as its system human breast cancer cell lines. The following applies: two of eight human breast cancer cell lines, resistant; cited from earlier work.
A further experiment deals with PC3 cells. Briefly: Cell-based proliferation assay, PC3. The following applies: Homo sapiens, PC-3, 96 h treatment, Celltiter96 Aqueous One Solution. The method, then:
Human cancer cell lines PC3 and DU145 (human prostate cancer cell lines), were obtained from ATCC. They were cultured in the media according to the ATCC work instructions. PC3 and DU145 cells were seeded at 1,000 cells per well in 96-well plates, respectively. The plates were incubated at 37° C., 5% CO2, for 24 h. Cells were treated with compounds at various concentrations for 96 h. Cell proliferation was then quantified using Celltiter96 Aqueous One Solution Cell Proliferation Assay from Promega (Madison Wis.). Dose response curves were plotted to determine IC50 values for the compounds using XL-fit (ID Business Solution, Emeryville, Calif.).

A further experiment relates to human cancer cell lines. Conditions: different human cancer cell lines in vitro and xenograft models in vivo; read-out: IC50 (anti-neoplastic activity); cited from earlier work.

Molecules are shown by their SMILES.

T2 sequence (P42336 whole entry): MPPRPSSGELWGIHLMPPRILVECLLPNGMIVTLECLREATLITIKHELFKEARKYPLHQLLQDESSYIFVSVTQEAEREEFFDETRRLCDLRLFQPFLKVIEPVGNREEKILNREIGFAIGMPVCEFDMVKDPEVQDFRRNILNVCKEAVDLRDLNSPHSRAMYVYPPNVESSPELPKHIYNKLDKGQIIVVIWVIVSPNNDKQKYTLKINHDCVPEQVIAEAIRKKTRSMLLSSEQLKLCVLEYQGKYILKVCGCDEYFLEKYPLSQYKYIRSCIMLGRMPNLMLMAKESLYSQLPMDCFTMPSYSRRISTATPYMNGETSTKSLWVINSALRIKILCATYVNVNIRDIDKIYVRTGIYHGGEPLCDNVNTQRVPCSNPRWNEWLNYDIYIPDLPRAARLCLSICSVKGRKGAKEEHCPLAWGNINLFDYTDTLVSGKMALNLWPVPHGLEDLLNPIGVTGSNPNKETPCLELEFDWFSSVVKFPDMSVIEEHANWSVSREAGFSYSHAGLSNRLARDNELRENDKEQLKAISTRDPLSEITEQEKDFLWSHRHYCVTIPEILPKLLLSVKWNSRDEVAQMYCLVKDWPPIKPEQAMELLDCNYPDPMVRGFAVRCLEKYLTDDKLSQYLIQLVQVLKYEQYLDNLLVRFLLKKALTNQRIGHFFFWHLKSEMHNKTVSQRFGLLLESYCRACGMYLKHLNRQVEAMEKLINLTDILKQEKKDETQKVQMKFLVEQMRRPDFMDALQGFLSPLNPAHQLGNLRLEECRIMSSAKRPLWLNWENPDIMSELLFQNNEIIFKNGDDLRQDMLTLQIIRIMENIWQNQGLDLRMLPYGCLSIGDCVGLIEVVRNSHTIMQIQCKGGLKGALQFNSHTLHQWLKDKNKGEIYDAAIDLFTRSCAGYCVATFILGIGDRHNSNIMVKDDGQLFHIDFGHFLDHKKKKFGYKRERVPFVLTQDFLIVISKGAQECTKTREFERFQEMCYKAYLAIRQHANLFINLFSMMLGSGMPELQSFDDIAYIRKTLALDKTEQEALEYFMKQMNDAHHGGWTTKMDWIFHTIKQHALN
T2 sequence (P27986 whole entry partner): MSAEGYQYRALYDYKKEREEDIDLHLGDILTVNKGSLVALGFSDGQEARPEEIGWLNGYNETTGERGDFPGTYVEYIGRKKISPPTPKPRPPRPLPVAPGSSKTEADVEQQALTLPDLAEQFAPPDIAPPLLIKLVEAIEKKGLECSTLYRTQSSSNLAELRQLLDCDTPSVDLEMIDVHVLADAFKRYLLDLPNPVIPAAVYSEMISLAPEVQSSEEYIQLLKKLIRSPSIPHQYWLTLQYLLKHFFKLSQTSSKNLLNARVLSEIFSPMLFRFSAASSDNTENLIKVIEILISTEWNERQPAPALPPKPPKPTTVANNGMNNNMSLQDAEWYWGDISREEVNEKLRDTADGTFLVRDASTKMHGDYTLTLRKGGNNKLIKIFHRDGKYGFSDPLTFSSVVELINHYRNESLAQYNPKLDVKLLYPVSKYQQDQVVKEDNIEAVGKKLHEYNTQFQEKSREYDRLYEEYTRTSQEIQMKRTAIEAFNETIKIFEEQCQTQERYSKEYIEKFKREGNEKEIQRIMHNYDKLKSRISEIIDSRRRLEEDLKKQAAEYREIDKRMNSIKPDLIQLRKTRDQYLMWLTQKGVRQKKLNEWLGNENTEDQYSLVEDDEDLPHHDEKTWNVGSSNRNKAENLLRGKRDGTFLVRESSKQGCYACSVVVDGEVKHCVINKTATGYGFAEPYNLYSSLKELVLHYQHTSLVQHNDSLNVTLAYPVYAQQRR
T1 sequence (P42345 2156-2549 limits assumed): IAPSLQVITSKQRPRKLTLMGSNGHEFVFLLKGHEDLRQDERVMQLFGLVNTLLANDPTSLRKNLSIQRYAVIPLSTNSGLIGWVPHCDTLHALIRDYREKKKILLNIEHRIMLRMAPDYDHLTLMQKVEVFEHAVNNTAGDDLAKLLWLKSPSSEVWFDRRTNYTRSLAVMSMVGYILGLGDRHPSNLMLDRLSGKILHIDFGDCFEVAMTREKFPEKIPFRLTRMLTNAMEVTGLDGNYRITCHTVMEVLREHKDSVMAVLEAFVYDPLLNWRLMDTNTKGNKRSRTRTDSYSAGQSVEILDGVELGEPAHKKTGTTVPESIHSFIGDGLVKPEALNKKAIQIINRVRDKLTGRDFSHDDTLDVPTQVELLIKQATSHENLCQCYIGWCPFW

On to `CCC(CC)n1cnc2c(-c3cnc(N)nc3)nc(N3CCOCC3)nc21` [Compound 24], for which the IC50 (against Truncated mTOR kinase; in experiment [1]) was under 1000 nM in each case. `CC(c1ccccc1)n1cnc2c(-c3cnc(N)nc3)nc(N3CCOCC3)nc21` (stereo not drawn) [Compound 9]: the IC50 against Truncated mTOR kinase was 1000 to 5000 nM; in experiment [1], under 1000 nM.

With `CO[C@H]1C[C@@H]2CC[C@@H](C)[C@@](O)(O2)C(=O)C(=O)N2CCCC[C@H]2C(=O)O[C@H]([C@H](C)C[C@@H]2CC[C@@H](OC(=O)C(C)(CO)CO)[C@H](OC)C2)CC(=O)[C@H](C)/C=C(\C)[C@@H](O)[C@@H](OC)C(=O)[C@H](C)C[C@H](C)/C=C/C=C/C=C/1C` [CCI-779], the IC50 in experiment [2] is over 1000 nM. Regarding `COCC(C)n1cnc2c(-c3cnc(N)nc3)nc(N3CCOCC3)nc21` (stereo not drawn) [Compound 12], the IC50 (against Truncated mTOR kinase; in experiment [1]) was under 1000 nM each time.

For `COc1nc(N)ncc1-c1nc(N2CCOCC2)nc2c1ncn2C(C)C1CC1` (stereo not drawn) [Compound 11], the IC50 on Truncated mTOR kinase is 1000 to 5000 nM; in experiment [1] it was under 1000 nM. Regarding `CCC(C)n1cnc2c(-c3cnc(N)nc3OC)nc(N3CCOCC3)nc21` (stereo not drawn) [Compound 8], the IC50 (at Truncated mTOR kinase; in experiment [1]) was under 1000 nM throughout. `CC(C)(C)OC(=O)N1CCC(n2cnc3c(-c4cnc(N)nc4)nc(N4CCOCC4)nc32)CC1` [Compound 19]: the IC50 against Truncated mTOR kinase is under 1000 nM; in experiment [1] it was under 1000 nM; in the experiment with PC3 cells it was at most 1000 nM. On to `CCC(C)n1cnc2c(-c3cnc(NC)nc3)nc(N3CCOCC3)nc21` (stereo not drawn) [Compound 20], for which the IC50 (against Truncated mTOR kinase; in experiment [1]) was under 1000 nM each time.

As for `Nc1ncc(-c2nc(N3CCOCC3)nc3c2ncn3C2CCc3ccccc3C2)cn1` (stereo not drawn) [Compound 30], the IC50 (at Truncated mTOR kinase; in experiment [1]) was under 1000 nM in each case. Consider `CCC(C)n1cnc2c(-c3cnc(N)nc3)nc(N3CCOC[C@@H]3C)nc21` (stereo partly drawn) [Compound 35], for which the IC50 in experiment [1] is under 1000 nM.

Turning to `c1ccc(Cn2cnc3c(-c4cncnc4)nc(N4CCOCC4)nc32)cc1` [Compound 4], the IC50 is over 5000 nM at Truncated mTOR kinase and under 1000 nM in experiment [1].

Consider `CC[C@@H](C)n1cnc2c(-c3cnc(N)nc3)nc(N3CCOCC3)nc21` [Compound 25], for which, in the experiment on PC3 cells, the IC50 was at most 1000 nM. Regarding `COCC(C)n1cnc2c(-c3cnc(N)nc3OC)nc(N3CCOCC3)nc21` (stereo not drawn) [Compound 13], the figures for the IC50 (on Truncated mTOR kinase; in experiment [1]) were 1000 to 5000 nM and under 1000 nM, respectively. Consider `Nc1ncc(-c2nc(N3CCOCC3)nc3c2ncn3C2CCOC2)cn1` (stereo not drawn) [Compound 18], for which the IC50 against Truncated mTOR kinase is under 1000 nM; in the experiment with PC3 cells it was at most 1000 nM.

In the case of `Cc1nc(N)ncc1-c1nc(N2CCOCC2)nc2c1ncn2C(C)C1CC1` (stereo not drawn) [Compound 15], the results for the IC50 (against Truncated mTOR kinase; in experiment [1]) were over 5000 nM and under 1000 nM, respectively. In the case of `CCC(C)n1cnc2c(-c3cnc(N)nc3)nc(N3CCOCC3C)nc21` (stereo not drawn) [Compound 35], the IC50 against Truncated mTOR kinase is under 1000 nM; in the experiment on PC3 cells, at most 1000 nM. On to `Nc1ncc(-c2nc(N3CCOCC3)nc3[nH]cnc23)cn1` [Compound 34], for which the IC50 was 1000 to 5000 nM on Truncated mTOR kinase and under 1000 nM in experiment [1]. As for `CCC(C)n1c(Br)nc2c(-c3cnc(N)nc3)nc(N3CCOCC3)nc21` (stereo not drawn) [Compound 42, 5-(8-Bromo-9-sec-butyl-2-morpholin-4-yl-9H-purin-6-yl)-pyrimidin-2-ylamine], in the experiment on PC3 cells, the IC50 was at most 1000 nM. Turning to `COCC(C)n1cnc2c(-c3cnc(N)nc3C)nc(N3CCOCC3)nc21` (stereo not drawn) [Compound 16], the IC50 is over 5000 nM at Truncated mTOR kinase and under 1000 nM in experiment [1]. With `CC(C)C(C)n1cnc2c(-c3cnc(N)nc3)nc(N3CCOCC3)nc21` (stereo not drawn) [Compound 22], the figures for the IC50 (against Truncated mTOR kinase; in experiment [1]; in the experiment on PC3 cells) were under 1000 nM, under 1000 nM and at most 1000 nM, respectively. Take `Cc1cccc(-n2cnc3c(-c4cnc(N)nc4)nc(N4CCOCC4)nc32)c1` [Compound 27, 5-(2-morpholin-4-yl-9-m-tolyl-9H-purin-6-yl)-pyrimidin-2-yl-amine]: the IC50 (on Truncated mTOR kinase; in experiment [1]) was under 1000 nM each time. As to `CCCC(=O)N1CCC(n2cnc3c(-c4cnc(N)nc4)nc(N4CCOCC4)nc32)CC1` [Compound 21], the IC50 is under 1000 nM against Truncated mTOR kinase, under 1000 nM in experiment [1] and at most 1000 nM with PC3 cells. For `CCC(C)n1cnc2c(-c3cnc(N)nc3)nc(N3CCOCC3)nc21` (stereo not drawn) [Compound 26], the IC50 with PC3 cells was at most 1000 nM. Regarding `Cc1ccc(C(=O)N2CCC(n3cnc4c(-c5cnc(N)nc5)nc(N5CCOCC5)nc43)C2)s1` (stereo not drawn) [Compound 33, {3-[6-(2-Amino-pyrimidin-5-yl)-2-morpholin-4-yl-purin-9-yl]-pyrrolidin-1-yl}-(5-methyl-thiophen-2-yl)-methanone], the IC50 (against Truncated mTOR kinase; in experiment [1]) was under 1000 nM in each case. Take `CC(C)(C)Cn1cnc2c(-c3cnc(N)nc3)nc(N3CCOCC3)nc21` [Compound 29]: the IC50 at Truncated mTOR kinase was under 1000 nM; in experiment [1], under 1000 nM; in the experiment with PC3 cells it was at most 1000 nM. Consider `Nc1ncc(-c2nc(N3CCOCC3)nc3c2ncn3-c2ccccc2)cn1` [Compound 38], for which the IC50 (at Truncated mTOR kinase; in experiment [1]) was under 1000 nM in each case. Take `CCC(C)n1cnc2c(-c3cnc(N)nc3C)nc(N3CCOCC3)nc21` (stereo not drawn) [Compound 14]: the IC50 against Truncated mTOR kinase is over 5000 nM; in experiment [1], under 1000 nM. For `Nc1ncc(-c2nc(N3CCOCC3)nc3c2ncn3[C@H]2CCOC2)cn1` [Compound 18], the IC50 in experiment [1] is under 1000 nM. As to `CCC(C#N)n1cnc2c(-c3cnc(N)nc3)nc(N3CCOCC3)nc21` (stereo not drawn) [Compound 23], the IC50 on Truncated mTOR kinase is under 1000 nM; in experiment [1], under 1000 nM; in the experiment with PC3 cells it was at most 1000 nM. `Nc1ncc(-c2nc(N3CCOCC3)nc3c2ncn3Cc2c(F)cccc2F)cn1` [Compound 1]: the results for the IC50 (against Truncated mTOR kinase; in experiment [1]) were 1000 to 5000 nM and under 1000 nM, respectively. For the compound `CO[C@H]1C[C@@H]2CC[C@@H](C)[C@@](O)(O2)C(=O)C(=O)N2CCCC[C@H]2C(=O)O[C@H]([C@H](C)C[C@@H]2CC[C@@H](OCCO)[C@H](OC)C2)CC(=O)[C@H](C)/C=C(\C)[C@@H](O)[C@@H](OC)C(=O)[C@H](C)C[C@H](C)/C=C/C=C/C=C/1C` [RAD001, 40-O-(2-hydroxyethyl)-rapamycin], the IC50 in the experiment on human cancer cell lines was 5 to 1800 nM. Turning to `CC1CCC(n2cnc3c(-c4cnc(N)nc4)nc(N4CCOCC4)nc32)C1` (mixture of isomers) [Compound 37], the IC50 is under 1000 nM at Truncated mTOR kinase, under 1000 nM in experiment [1] and at most 1000 nM with PC3 cells. `CC(COC(C)(C)C)n1cnc2c(-c3cnc(N)nc3)nc(N3CCOCC3)nc21` (stereo not drawn) [Compound 5]: the half-maximal inhibitory concentration (IC50) is 1000 to 5000 nM against Truncated mTOR kinase and under 1000 nM in experiment [1]. For `CCC(C)n1cnc2c(-c3cncnc3)nc(N3CCOCC3)nc21` (stereo not drawn) [Compound 6], the figures for the IC50 (at Truncated mTOR kinase; in experiment [1]) were 1000 to 5000 nM and under 1000 nM, respectively.

In the case of `CC1CCC(n2cnc3c(-c4cnc(N)nc4)nc(N4CCOCC4)nc32)CC1` (stereo not drawn) [Compound 36], the IC50 (against Truncated mTOR kinase; in experiment [1]) was under 1000 nM each time. In the case of `Nc1ncc(-c2nc(N3CCOCC3)nc3c2ncn3C2CCN(C(=O)c3ccccc3)C2)cn1` (stereo not drawn) [Compound 32], the IC50 (at Truncated mTOR kinase; in experiment [1]) was under 1000 nM throughout. `Nc1ncc(-c2nc(N3CCOCC3)nc3c2ncn3C2CCNC2)cn1` (stereo not drawn) [Compound 28]: at Truncated mTOR kinase, the IC50 lay in the range of 1000 to 5000 nM. In the case of `CC(C1CC1)n1cnc2c(-c3cnc(N)nc3)nc(N3CCOCC3)nc21` (stereo not drawn) [Compound 10], the IC50 was under 1000 nM on Truncated mTOR kinase, under 1000 nM in experiment [1] and at most 1000 nM in the experiment with PC3 cells. On to `Nc1ncc(-c2nc(N3CCOCC3)nc3c2ncn3C2CCCC2)cn1` [Compound 7], for which the concentration for half-maximal inhibition (IC50) (against Truncated mTOR kinase; in experiment [1]) was under 1000 nM in each case. In the case of `Cc1nc(N)ncc1-c1nc(N2CCOCC2)nc2c1ncn2C(C)c1ccccc1` (stereo not drawn) [Compound 17], the IC50 was over 5000 nM at Truncated mTOR kinase and under 1000 nM in experiment [1]. As to `Nc1ncc(-c2nc(N3CCOCC3)nc3c2ncn3C2Cc3ccccc3C2)cn1` [Compound 31], the IC50 (at Truncated mTOR kinase; in experiment [1]) was under 1000 nM in each case.
